Earlier results in patent publication US20100151037A1, “METHOD FOR THE PREPARATION OF NANOPARTICLES CONTAINING A POORLY WATER-SOLUBLE […] ACTIVE COMPOUND” (priority 2008, published 2010).

Details: dry powder form

COC1=C(OC)C(=O)C(C/C=C(\C)CC/C=C(\C)CC/C=C(\C)CC/C=C(\C)CC/C=C(\C)CC/C=C(\C)CC/C=C(\C)CC/C=C(\C)CC/C=C(\C)CCC=C(C)C)=C(C)C1=O [Coenzyme Q10]
bioavailability: as low as three percent
